Source: US11897898B2, “Pyridine macrocycle compounds as ASK1 inhibiting agents” (BIOGEN MA INC., priority 2018, dated 2024)

Assay: In vivo brain penetration (rat Kpuu study)
Conditions: brain and plasma (unbound), IV infusion in the carotid artery for four hours, 1 mg/kg, steady state, Kpuu=Cu,b/Cu,p
Procedure: To evaluate the CNS penetration of the compounds described herein, several compounds were selected for in vivo rat Kpuu studies. In these experiments the compounds are administered via an IV infusion (using N,N-dimethylacetamide:ethanol:1,2-propylene glycol:water in a 1:1:3:5 ratio as the vehicle) in the carotid artery for a period of four hours (1 mg/kg, 0.1 mg/mL) to reach steady state. After this time the plasma and brain concentration levels are quantified, and the values are adjusted by the measured protein binding in plasma and brain homogenate to calculate the Kpuu (see Di, L.; Kerns, E. H. Blood-Brain Barrier in Drug Discovery (Wiley)) according to the equation below. Kpuu=Cu,b/Cu,p • Wherein: • Cu,b=Unbound concentration in brain (C×fu,b). (C=concentration at steady state; fu,b=fraction unbound in brain) • And in which: Cu,p=Unbound concentration in plasma (C×fu,p). (C=concentration at steady state; fu,p=fraction unbound in plasma)
Plasma and brain protein binding values were generated via the Rapid Equilibrium Dialysis method. The compound of interest was incubated in K2EDTA plasma and brain homogenate (homogenized 1:7 (w:v) in 1×PBS) purchased from BioIVT (Westbury, N.Y.), opposite a buffered compartment of 100 mM Potassium phosphate/150 mM Sodium chloride, pH 7.4, at 1 μM for 4 hr and 6 hr respectively. At the conclusion of incubation samples were taken from both matrix and buffered compartments, matrix-matched using blank buffer and matrix, extracted with acetonitrile, diluted with water, and analyzed utilizing an Agilent RapidFire 365 high-throughput LC coupled with MS/MS detection via an AB Sciex 5500. Free fractions (fu) were then calculated by comparing internal standard/analyte peak-area ratios of matrix and buffered compartments. Cross-species brain protein binding was considered to be equivalent for the purposes of calculating free fraction (see Di, L., et al., (2011a) Species Independence in Brain Tissue Binding Using Brain Homogenates, Drug Metab Dispos 39:1270-1277).
Total drug concentration in plasma and brain tissue was measured via well-established bioanalytical extraction (protein precipitation) and detection methods (LC-MS/MS). Brain tissues were homogenized 1:4 (w:v) with 1×PBS in MP Biomedicals Lysing Matrix D tubes via an MP Biomedicals FastPrep-24™ homogenizer and were then extracted alongside plasma samples by matrix-matching with blank K2EDTA plasma (purchased from BioIVT), followed by protein crash/extraction with acetonitrile, supernatant dry down under nitrogen, and reconstitution with an acidified aqueous/organic mixture before being measured against a calibration curve of the compound of interest prepared in plasma, matrix-matched with blank brain homogenate (generated with brains purchased from BioIVT), and similarly extracted. Reconstituted extracts were then analyzed via LC-MS/MS (AB Sciex 5500) utilizing a binary HPLC setup (Shimadzu LC-20ADvp) and reverse-phase chromatography gradient (ACE 3 C18-AR). Peak area ratios and a 1/x^2 regression fit were used to generate sample concentration values that, combined with plasma and brain protein binding values, were used to generate free drug concentration values and partitioning coefficient (Kpuu).

`C[C@H]1CCCOc2ncc(Br)cc2C(=O)Nc2cccc(n2)-c2nncn21` (single isomer, unassigned) [Compound 1] and `C[C@H]1CCCOc2ncc(C#N)cc2C(=O)Nc2cccc(n2)-c2nncn21` [Compound 38, (S)-10-Methyl-4-oxo-1^4H-6-oxa-3-aza-2(2,6),5(3,2)-dipyridina-1(3,4)-triazolacyclodecaphane-5^5-carbonitrile] cannot be ordered by Kp uu at 4 h: at least 0.1 for the first, under 0.1 for the second.

`C[C@H]1CCCOc2ncc(-c3ccncc3)cc2C(=O)Nc2cccc(n2)-c2nncn21` [Compound 17, (S)-10-Methyl-5^5-(pyridin-4-yl)-1^4H-6-oxa-3-aza-2(2,6),5(3,2)-dipyridina-1(3,4)-triazolacyclodecaphan-4-one] and `C[C@H]1CCCOc2ncccc2C(=O)Nc2cccc(n2)-c2nncn21` (single isomer, unassigned) [Compound 4] cannot be ordered by Kp uu at 4 h: at least 0.1 for the first, at least 0.1 for the second.

`C[C@H]1CCCOc2ncc(C(F)(F)F)cc2C(=O)Nc2cccc(n2)-c2nncn21` (single isomer, unassigned) [Compound 41] gave a Kp uu at 4 h of at least 0.1.
